The text below walks through data of ChEMBL document CHEMBL1126443, “Cholinergic agents: aldehyde, ketone, and oxime analogues of the muscarinic agonist UH5” (Bioorg Med Chem Lett, 1992).

Assay [1] deals with Muscarinic acetylcholine receptor. Description: Inhibition of 0.03 nM [3H]quinuclidinyl benzylate binding to rat neocortex muscarinic receptor. It counts as protein assay.
Assay [2] is described as follows: Selectivity ratio of M2/m1 receptors.
Assay [3] has as its target T1, Muscarinic acetylcholine receptor M1 (Homo sapiens, UniProt P11229).
T1 sequence (P11229 whole entry): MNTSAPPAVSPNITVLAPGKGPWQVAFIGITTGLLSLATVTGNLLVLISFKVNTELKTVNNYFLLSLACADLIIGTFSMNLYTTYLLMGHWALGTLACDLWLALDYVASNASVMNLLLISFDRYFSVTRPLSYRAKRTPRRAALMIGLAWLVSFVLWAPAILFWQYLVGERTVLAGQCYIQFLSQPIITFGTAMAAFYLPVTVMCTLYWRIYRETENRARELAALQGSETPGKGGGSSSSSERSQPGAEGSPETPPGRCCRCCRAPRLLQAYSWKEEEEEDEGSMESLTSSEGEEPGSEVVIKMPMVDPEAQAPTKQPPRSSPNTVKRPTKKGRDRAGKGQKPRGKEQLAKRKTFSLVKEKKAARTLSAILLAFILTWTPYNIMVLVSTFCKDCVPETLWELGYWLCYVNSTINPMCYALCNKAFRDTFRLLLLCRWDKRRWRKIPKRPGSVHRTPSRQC
Description: Displacement of [3H]QNB in genetically transformed mouse cell line (m1C2) transfected with Muscarinic acetylcholine receptor M1. A general note: Displacement assays read how much labelled ligand stays bound in the presence of the test substance.

In assay [4] the target is Muscarinic acetylcholine receptor. The experiment in a line: Inhibition of 0.1 nM [3H]cis-methyldioxolane binding to rat neocortex muscarinic receptor. Type of assay: protein assay.
In assay [5] the target is T2, Muscarinic acetylcholine receptor M2 (Rattus norvegicus, UniProt P10980).
T2 sequence (P10980 whole entry): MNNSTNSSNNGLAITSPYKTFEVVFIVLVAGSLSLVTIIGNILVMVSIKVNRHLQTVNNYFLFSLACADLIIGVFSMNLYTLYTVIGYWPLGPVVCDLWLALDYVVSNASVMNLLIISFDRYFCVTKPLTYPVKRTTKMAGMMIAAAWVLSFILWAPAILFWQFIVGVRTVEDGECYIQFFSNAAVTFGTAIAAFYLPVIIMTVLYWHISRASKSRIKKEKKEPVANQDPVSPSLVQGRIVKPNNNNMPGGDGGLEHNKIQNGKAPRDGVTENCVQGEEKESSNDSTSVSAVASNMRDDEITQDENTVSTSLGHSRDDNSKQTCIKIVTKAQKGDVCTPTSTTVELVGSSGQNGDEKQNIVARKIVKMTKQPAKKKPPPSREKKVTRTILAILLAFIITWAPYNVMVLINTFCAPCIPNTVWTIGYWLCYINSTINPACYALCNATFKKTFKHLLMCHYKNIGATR
The experiment in a line: Displacement of [3H]QNB from Muscarinic acetylcholine receptor M2 from rat heart homogenates. It counts as tissue-based.

The target of assay [6] is T3, Muscarinic acetylcholine receptor (Rattus norvegicus) (UniProt P08482+P08483+P08485+P08911+P10980). Description: Relative binding efficacy for muscarinic receptors using QNB and CMD. It counts as protein assay.
The target of assay [7] is T3, Muscarinic acetylcholine receptor (Rattus norvegicus). Description: Percent inhibition towards muscarinic receptor in rat neocortex using 0.03 nM [3H]quinuclidinyl benzylate receptor binding assay (RQMB) was determined.
For assay [8] the target is unchanged. The experiment in a line: Percent inhibition towards muscarinic receptor in rat neocortex using 0.1 nM [3H]cis-methyldioxolane receptor binding assay (RCMD).

pIC50: −log10 of the molar value.

For orientation: IC50 means the concentration needed to halve the response being measured. For orientation: pIC50 means the IC50 on a negative log10 scale, so that one unit is a factor of ten. A high value points to a small IC50. As for `CC(=O)N(C)CC#CCN1CCCC1`, the figures for the IC50 in assay [1] and in assay [4] were 2.447 µM and 0.0045 µM, respectively. For the same compound, the Selectivity ratio in assay [2] was 0.9. Moreover, the values for the pIC50 in assay [3] and in assay [5] were 5.61 and 5.70, respectively. Further, the Efficacy ratio in assay [6] was determined as 544.

Turning to `CC(/C=N/O)CC#CCN1CCCC1` (centres undefined), the IC50 in assay [1] worked out at 1.928 µM; in assay [4] it was 0.021 µM. The Selectivity ratio in assay [2] turned out to be 4.8. The negative logarithm of the IC50 (pIC50) in assay [3] is 6.04; in assay [5] it was 5.26. Further, in assay [6], the Efficacy ratio was found to be 92.

Turning to `CC(=O)C(C)CC#CCN1CCCC1` (centres undefined), the IC50 in assay [1] is 5.696 µM; in assay [4], 0.059 µM. Besides, the Selectivity ratio in assay [2] worked out at 2.3. Besides, the pIC50 in assay [3] was 5.55; in assay [5] it was 5.19. Further, in assay [6], the Efficacy ratio came to 97.

On to `C[N+](C)(C)CC#CCOC(=O)Nc1cccc(Cl)c1.[Cl-]`, for which the IC50 came to 5.388 µM in assay [1] and 0.064 µM in assay [4]. In addition, the Selectivity ratio in assay [2] was found to be 4.7. The pIC50 in assay [3] was 5.14; in assay [5] it was 4.47. Further, the Efficacy ratio in assay [6] came out at 84.

For `C/C(CCC#CCN(C)C)=N\O`, the results for the half-maximal inhibitory concentration (IC50) in assay [1] and in assay [4] were 36.769 µM and 0.139 µM, respectively. For the same compound, the Efficacy ratio in assay [6] worked out at 265.

In the case of `CC(=O)CCC#CCN1CCCC1`, the concentration for half-maximal inhibition (IC50) in assay [1] came to 7.28 µM; in assay [4], 0.214 µM. Further, the Efficacy ratio in assay [6] came out at 34.

The term inhibition denotes the drop in the measured response relative to a control, in per cent. Take `CO/N=C(\C)CCC#CCN1CCCC1`: the inhibition in assay [7] came to 17%; in assay [8], 5%.

For the compound `CC(C=O)CC#CCN1CCCC1` (centres undefined), the inhibition in assay [7] stood at 9%; in assay [8], 1%.

With `CC(C=O)CC#CCN(C)C` (centres undefined), the inhibition in assay [7] and in assay [8] was 0% in each case.

As for `CO/N=C/C(C)CC#CCN(C)C` (centres undefined), the inhibition in assay [7] was 4%; in assay [8], 6%.

For `O=C1CCCN1CC#CCN1CCCC1` [OXOTREMORINE], the figures for the IC50 in assay [1] and in assay [4] were 0.407 µM and 0.0015 µM, respectively. Further, in assay [2], the Selectivity ratio is 2.4. In addition, the pIC50 in assay [3] was 6.44. Further, the Efficacy ratio in assay [6] amounted to 308.

As for `C/C(=N\O)C(C)CC#CCN1CCCC1` (centres undefined), the inhibition turned out to be 15% in assay [7] and 21% in assay [8].

On to `CC(/C=N/O)CC#CCN(C)C` (centres undefined), for which the IC50 in assay [1] was 13.23 µM; in assay [4], 0.03 µM. Besides, the Selectivity ratio in assay [2] amounted to 1.3. Further, the values for the pIC50 in assay [3] and in assay [5] were 4.59 and 4.47, respectively. Also, the Efficacy ratio in assay [6] was 441.

Turning to `C/C(CCC#CCN1CCCC1)=N\O`, the IC50 stood at 1.254 µM in assay [1] and 0.373 µM in assay [4]. The Efficacy ratio in assay [6] was found to be 3.

Regarding `CO/N=C(\C)C(C)CC#CCN1CCCC1` (centres undefined), the values for the inhibition in assay [7] and in assay [8] were 26% and 21%, respectively.

Turning to `CC(=O)CCC#CCN(C)C`, the half-maximal inhibitory concentration (IC50) in assay [1] was 65.6 µM; in assay [4], 0.068 µM. In assay [2], the Selectivity ratio is 0.4. The pIC50 in assay [3] is 4.29; in assay [5], 4.72. Moreover, in assay [6], the Efficacy ratio was found to be 965.

Take `CO/N=C(\C)C(C)CC#CCN(C)C` (centres undefined): the inhibition was 3% in assay [7] and 5% in assay [8].

On to `CO/N=C(\C)CCC#CCN(C)C`, for which the inhibition was 1% in assay [7] and 5% in assay [8].

Regarding `CC(=O)N(C)CC#CCN(C)C`, the IC50 amounted to 87.876 µM in assay [1] and 0.0216 µM in assay [4]. Further, the Selectivity ratio in assay [2] turned out to be 0.2. Besides, the pIC50 in assay [3] was 4.06; in assay [5], 5.35. Also, the Efficacy ratio in assay [6] was 4070.

For `C/C(=N\O)C(C)CC#CCN(C)C` (centres undefined), the inhibition in assay [7] came out at 9%; in assay [8], 12%.

In the case of `CC(=O)C(C)CC#CCN(C)C` (centres undefined), the IC50 worked out at 55.4 µM in assay [1] and 0.101 µM in assay [4]. Moreover, in assay [6], the Efficacy ratio is 549.

Consider `CO/N=C/C(C)CC#CCN1CCCC1` (centres undefined), for which the inhibition in assay [7] amounted to 15%; in assay [8] it was 27%.
